For assay [1], the system named is Cricetinae gen. sp. Description: In vivo activity in a cholesterol-fed hamster assay was determined at 1 mg/kg/day. It is filed as functional, Cricetulus griseus.
In assay [2] the test system is Cricetinae gen. sp. Description: Effective dose required to produe activity in cholesterol hamster assay was determined; na means not applicable. It counts as functional, organism-based. As to conditions: Cricetulus griseus.
Assay [3] has as its system Cricetinae gen. sp. As to the kind of experiment: Effective dose required to produe activity in cholesterol hamster assay was determined. It counts as functional, Cricetulus griseus.
For assay [4], the system named is Cricetinae gen. sp. As to the kind of experiment: In vivo activity in a cholesterol-fed hamster assay was determined at 50 mg/kg/day. It is filed as functional, Cricetulus griseus.
Assay [5] deals with Cricetinae gen. sp. Description: In vivo activity in a cholesterol-fed hamster assay was determined at 10 mg/kg/day. It is filed as functional, Cricetulus griseus.

Active and inactive are the calls of the source. The rule behind the calls is not given here.

Regarding `O=C1[C@H](CC[C@H](O)c2ccc(I)cc2)[C@@H](c2ccc(O)cc2)N1c1ccc(F)cc1`, in the assay with Cricetinae gen. sp. [1], the Reduction is given as -54%. Moreover, the ED50 (in general, the midpoint of the dose-response relation) with Cricetinae gen. sp. [2] was “inactive”.
Regarding `O=C1[C@H](CC[C@H](O)c2ccc(F)cc2)[C@@H](c2ccc(O)cc2)N1c1ccc(I)cc1`, the Reduction in the assay on Cricetinae gen. sp. [1] is -63%. This compound also had a 50% effective dose (ED50) with Cricetinae gen. sp. [3] of 0.49 mg/kg/day.
Consider `COc1ccc([C@@H]2[C@@H](CCCc3ccccc3)C(=O)N2c2ccc(I)cc2)cc1` (racemic), for which the Reduction with Cricetinae gen. sp. [4] is on record as -82%. The ED50 result in the assay with Cricetinae gen. sp. [2] was “inactive”.
The like results for `COc1ccc([C@@H]2[C@@H](CCCc3ccc(I)cc3)C(=O)N2c2ccc(OC)cc2)cc1` (racemic) were, in that order, -56% and “inactive”.
Take `O=C(O)[C@H]1OC(Oc2ccc([C@@H]3[C@@H](CC[C@H](O)c4ccc(F)cc4)C(=O)N3c3ccc(I)cc3)cc2)C(O)[C@@H](O)[C@@H]1O` (single isomer, unassigned): in the assay with Cricetinae gen. sp. [1], the Reduction is listed as -54%. Besides, the ED50 result in the assay with Cricetinae gen. sp. [2] was “inactive”.
Turning to `O=C1[C@H](CC[C@H](O)c2ccc(F)cc2)[C@@H](c2ccc(O)cc2)N1c1ccc(F)cc1` [EZETIMIBE], in the assay on Cricetinae gen. sp. [1], the Reduction is listed as -100%. This compound gave an ED50 with Cricetinae gen. sp. [3] of 0.04 mg/kg/day.
For the compound `COc1ccc([C@@H]2[C@@H](CCCc3ccccc3)C(=O)N2c2ccc(OC)cc2)cc1` [SCH-48461], it took a dose of 2.2 mg/kg/day to reach the 50% effect level in the assay with Cricetinae gen. sp. [3] (ED50). For the same compound, the Reduction with Cricetinae gen. sp. [5] is on record as -93%.

The values above are taken from ChEMBL document CHEMBL1135025, “Synthesis of iodinated biochemical tools related to the 2-azetidinone class of cholesterol absorption inhibitors” (2002).
